Data reported in patent US10174032B2, “Heterocyclic compound classes for signaling modulation” (SignalRx Pharmaceuticals, Inc., priority 2014, dated 2019).
Read-outs that look alike come from different tables or passages of the source.

How the values were obtained:
[1] = system: PC3 cells; assay: PC3 cell proliferation (WST, 72 hours); format: cell-based; conditions: Homo sapiens, read-out: PC3 cell proliferation(IC50 μM)
Procedure: The PC3 cell proliferation data in column 26 of Table 5 was obtained as follows: PC3 cells were obtained from the American Type Culture Collection (ATCC, Manassas, Va., Cat.#CRL-1435). Two thousand cells from the prostate cancer line PC3 were placed in 50 μL of complete RPMI 1640 media (Invitrogen, Carlsbad, Calif., Cat.#22400-105) with 10% fetal bovine serum, (Invitrogen, Carlsbad, Calif., Cat.#10438-026) into each well of 96-well cell culture plates in a hexaplicate sampling pattern. A 50 μL aliquot of test compound (prepared from stock test compounds in DMSO diluted into media) was added to the appropriate well such that the final concentrations of test compound were 200, 40, 8, 1.6, 0.32, 0.064, 0.0128, 0.00256, and 0 μM and the final DMSO concentration was less than or equal to 0.2% . The plates were incubated for 72 hours 37° C. in an atmosphere of 5% CO2. At the end of this time a 10 μL aliquot of WST solution (Roche Applied Science, Mannheim, Germany) was added into each of the wells. Cells were exposed to the WST solution for 4 hours. A SpectraMax Plus spectrophotometric plate reader (Molecular Devices, Sunnydale, Calif.) was then used to measure the optical density at 450 nm (OD450 nm). Sigmoidal curves were drawn for the dose responses and IC50 values were calculated using the software package GraphPad Prism4 (GraphPad Software, Inc., San Diego, Calif.).

[2] = target: PI3K-alpha (Homo sapiens, UniProt P42336); assay: Kinase inhibition assay, P-33 labelled ATP phosphate transfer, PI3K-alpha; format: biochemical; conditions: for inhibition at 0.3 µM: read-out: PI3K-alpha (% Inh at 300 nM)
Procedure: (§1) The assays determined the amount of radioactive phosphate transferred from P-33 labelled ATP to the substrate by the enzyme in the presence of various concentrations of the inhibitor test compounds. […] After this time period the cells were serum starved for 5 hours followed by application of the test compound. Test compound was added as a DMSO (dimethyl sulfoxide) solution such that the final DMSO concentration in the cell media was less than or equal to 0.2% by volume. After 30 minutes of exposure the growth factor stimulant, human IGF-1 (Pepro Tech, Inc., Rocky Hill, N.J., Cat.#100-11), was added in each well. […] A SpectraMax Plus spectrophotometric plate reader (Molecular Devices, Sunnydale, Calif.) was used to measure the optical density signal for pAKT at 450 nm (OD450 nm). The pAKT OD450 nm readings were normalized by total protein amount in the cell lysates determined by standard methods. Concentrations of test compounds required to inhibit IGF stimulated pAKT levels to 50% of maximum levels in PC3 cells (termed DM50 for decreased maximum 50%) were calculated by inputting the dose responses in the software package GraphPad Prism4 (GraphPad Software, Inc., San Diego, Calif.).

[3] = target: PLK-1 (Homo sapiens, UniProt P53350); assay: Kinase inhibition assay, P-33 labelled ATP phosphate transfer, PLK-1; format: biochemical; conditions: for inhibition at 10 µM: read-out: PLK-1(% Inh at 10 μM); for inhibition at 0.3 µM: read-out: PLK-1(% Inh at 300 nM)
Procedure: as §1

[4] = target: DNA-PK (Homo sapiens, UniProt P78527); assay: Kinase inhibition assay, P-33 labelled ATP phosphate transfer, DNA-PK; format: biochemical; conditions: for inhibition at 0.3 µM: read-out: DNA-PK(% Inh at 300 nM)
Procedure: as §1

[5] = target: mTOR (Homo sapiens, UniProt P42345); assay: Kinase inhibition assay, P-33 labelled ATP phosphate transfer, mTOR; format: biochemical; conditions: for inhibition at 10 µM: read-out: mTOR(% Inh at 10 μM); for inhibition at 0.3 µM: read-out: mTOR(% Inh at 300 nM)
Procedure: as §1

[6] = target: PI3K-delta (Homo sapiens, UniProt O00329); assay: Kinase inhibition assay, P-33 labelled ATP phosphate transfer, PI3K-delta; format: biochemical; conditions: for inhibition at 10 µM: read-out: PI3K-delta(% Inh at 10 μM); for inhibition at 0.3 µM: read-out: PI3K-delta(% Inh at 300 nM)
Procedure: as §1

[7] = target: PI3K-gamma (Homo sapiens, UniProt P48736); assay: Kinase inhibition assay, P-33 labelled ATP phosphate transfer, PI3K-gamma; format: biochemical; conditions: for inhibition at 10 µM: read-out: PI3K-gamma(% Inh at 10 μM); for inhibition at 0.3 µM: read-out: PI3K-gamma(% Inh at 300 nM)
Procedure: as §1

[8] = target: PI3K-beta (Homo sapiens, UniProt P42338); assay: Kinase inhibition assay, P-33 labelled ATP phosphate transfer, PI3K-beta; format: biochemical; conditions: for inhibition at 10 µM: read-out: PI3K-beta(% Inh at 10 μM); for inhibition at 0.3 µM: read-out: PI3K-beta(% Inh at 300 nM)
Procedure: as §1

[9] = target: PIM-1 (Homo sapiens, UniProt P11309); assay: Kinase inhibition assay, P-33 labelled ATP phosphate transfer, PIM-1; format: biochemical; conditions: for inhibition at 10 µM: read-out: PIM-1(% Inh at 10 μM); for inhibition at 0.3 µM: read-out: PIM-1(% Inh at 300 nM)
Procedure: as §1

[10] = system: PI-3 kinases; conditions: cited from earlier work

Sequence of PIM-1 (P11309 whole entry, species assumed): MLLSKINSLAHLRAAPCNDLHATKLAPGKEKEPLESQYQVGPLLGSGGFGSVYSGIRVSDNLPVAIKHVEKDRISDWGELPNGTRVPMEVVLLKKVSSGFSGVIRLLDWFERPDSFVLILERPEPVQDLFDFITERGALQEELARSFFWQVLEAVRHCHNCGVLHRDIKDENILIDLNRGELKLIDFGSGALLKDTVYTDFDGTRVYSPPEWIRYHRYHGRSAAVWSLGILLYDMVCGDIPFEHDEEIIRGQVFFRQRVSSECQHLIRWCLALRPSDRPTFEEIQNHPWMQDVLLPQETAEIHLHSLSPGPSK
Sequence of PI3K-delta (O00329 whole entry, species assumed): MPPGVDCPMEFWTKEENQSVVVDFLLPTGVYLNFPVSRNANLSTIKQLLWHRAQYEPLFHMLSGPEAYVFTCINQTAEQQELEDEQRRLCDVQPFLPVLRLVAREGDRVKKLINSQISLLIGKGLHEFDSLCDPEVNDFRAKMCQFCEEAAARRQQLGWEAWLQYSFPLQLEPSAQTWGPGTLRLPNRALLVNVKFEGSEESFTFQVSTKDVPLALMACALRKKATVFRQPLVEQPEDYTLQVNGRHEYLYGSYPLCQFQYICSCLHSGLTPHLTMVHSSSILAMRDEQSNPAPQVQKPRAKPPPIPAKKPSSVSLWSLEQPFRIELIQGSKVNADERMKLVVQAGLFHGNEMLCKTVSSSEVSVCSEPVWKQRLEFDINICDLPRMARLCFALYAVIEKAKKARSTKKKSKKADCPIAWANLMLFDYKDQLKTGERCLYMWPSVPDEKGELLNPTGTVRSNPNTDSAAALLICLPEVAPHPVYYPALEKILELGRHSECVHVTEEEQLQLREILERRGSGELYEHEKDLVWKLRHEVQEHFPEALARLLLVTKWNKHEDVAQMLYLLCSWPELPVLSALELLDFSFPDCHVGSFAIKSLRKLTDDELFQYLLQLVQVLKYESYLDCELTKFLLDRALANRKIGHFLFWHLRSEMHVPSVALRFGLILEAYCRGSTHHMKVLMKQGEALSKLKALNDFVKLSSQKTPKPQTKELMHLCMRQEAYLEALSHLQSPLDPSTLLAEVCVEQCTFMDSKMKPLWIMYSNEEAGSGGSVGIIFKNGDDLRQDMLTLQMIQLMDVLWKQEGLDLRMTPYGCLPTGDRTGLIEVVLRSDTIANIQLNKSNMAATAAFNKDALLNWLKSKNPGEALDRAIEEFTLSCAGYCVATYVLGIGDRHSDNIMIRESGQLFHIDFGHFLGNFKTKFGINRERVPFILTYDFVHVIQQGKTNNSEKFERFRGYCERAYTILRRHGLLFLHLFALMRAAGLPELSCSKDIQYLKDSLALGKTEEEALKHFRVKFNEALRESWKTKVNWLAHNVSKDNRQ
Sequence of PI3K-delta (P27986 whole entry partner, species assumed): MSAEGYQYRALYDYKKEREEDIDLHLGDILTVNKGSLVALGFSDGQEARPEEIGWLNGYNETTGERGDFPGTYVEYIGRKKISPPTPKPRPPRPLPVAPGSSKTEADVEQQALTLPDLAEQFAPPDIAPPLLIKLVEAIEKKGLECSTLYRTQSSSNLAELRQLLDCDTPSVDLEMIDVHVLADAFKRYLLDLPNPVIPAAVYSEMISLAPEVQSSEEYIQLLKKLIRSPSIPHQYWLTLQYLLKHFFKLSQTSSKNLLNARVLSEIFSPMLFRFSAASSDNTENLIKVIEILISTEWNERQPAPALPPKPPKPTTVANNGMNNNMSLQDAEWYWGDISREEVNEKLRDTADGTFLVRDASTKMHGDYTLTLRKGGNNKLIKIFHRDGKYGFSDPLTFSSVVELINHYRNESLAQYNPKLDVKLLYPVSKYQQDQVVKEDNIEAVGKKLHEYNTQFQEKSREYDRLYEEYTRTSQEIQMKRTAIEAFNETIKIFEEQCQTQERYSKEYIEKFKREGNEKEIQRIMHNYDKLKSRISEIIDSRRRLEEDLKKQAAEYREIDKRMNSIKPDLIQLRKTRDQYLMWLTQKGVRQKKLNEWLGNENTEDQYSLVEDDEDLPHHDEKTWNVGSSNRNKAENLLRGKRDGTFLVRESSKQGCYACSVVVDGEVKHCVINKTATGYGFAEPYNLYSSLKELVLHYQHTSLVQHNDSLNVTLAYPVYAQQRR
Sequence of PI3K-gamma (P48736 whole entry, species assumed): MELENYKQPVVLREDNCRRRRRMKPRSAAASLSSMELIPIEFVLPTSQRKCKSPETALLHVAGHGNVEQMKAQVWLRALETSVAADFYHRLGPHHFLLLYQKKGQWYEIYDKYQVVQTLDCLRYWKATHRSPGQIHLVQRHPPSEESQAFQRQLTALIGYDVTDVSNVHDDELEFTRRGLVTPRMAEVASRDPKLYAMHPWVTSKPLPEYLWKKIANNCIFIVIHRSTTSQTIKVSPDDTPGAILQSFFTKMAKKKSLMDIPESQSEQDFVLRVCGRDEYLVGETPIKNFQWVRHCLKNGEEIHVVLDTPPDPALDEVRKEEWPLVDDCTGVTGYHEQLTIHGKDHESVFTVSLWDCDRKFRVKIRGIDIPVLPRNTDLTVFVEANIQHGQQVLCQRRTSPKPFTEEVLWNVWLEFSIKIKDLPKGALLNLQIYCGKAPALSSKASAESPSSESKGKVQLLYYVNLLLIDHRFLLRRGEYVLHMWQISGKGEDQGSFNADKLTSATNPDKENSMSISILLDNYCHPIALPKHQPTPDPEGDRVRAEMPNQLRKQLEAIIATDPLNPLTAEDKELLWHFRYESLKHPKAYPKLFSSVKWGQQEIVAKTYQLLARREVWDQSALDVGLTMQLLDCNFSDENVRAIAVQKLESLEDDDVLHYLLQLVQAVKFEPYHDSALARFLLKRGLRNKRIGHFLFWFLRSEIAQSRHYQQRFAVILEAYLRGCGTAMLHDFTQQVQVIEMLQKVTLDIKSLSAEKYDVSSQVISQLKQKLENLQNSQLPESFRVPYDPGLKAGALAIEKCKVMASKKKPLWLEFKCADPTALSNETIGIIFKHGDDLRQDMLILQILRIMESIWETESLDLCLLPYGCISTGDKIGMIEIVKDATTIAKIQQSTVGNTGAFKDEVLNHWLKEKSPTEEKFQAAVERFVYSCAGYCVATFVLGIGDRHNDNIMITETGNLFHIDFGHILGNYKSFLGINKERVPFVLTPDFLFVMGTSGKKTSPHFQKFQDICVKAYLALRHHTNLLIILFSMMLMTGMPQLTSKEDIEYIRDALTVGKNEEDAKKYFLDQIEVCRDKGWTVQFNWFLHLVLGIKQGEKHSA
Sequence of PLK-1 (P53350 whole entry, species assumed): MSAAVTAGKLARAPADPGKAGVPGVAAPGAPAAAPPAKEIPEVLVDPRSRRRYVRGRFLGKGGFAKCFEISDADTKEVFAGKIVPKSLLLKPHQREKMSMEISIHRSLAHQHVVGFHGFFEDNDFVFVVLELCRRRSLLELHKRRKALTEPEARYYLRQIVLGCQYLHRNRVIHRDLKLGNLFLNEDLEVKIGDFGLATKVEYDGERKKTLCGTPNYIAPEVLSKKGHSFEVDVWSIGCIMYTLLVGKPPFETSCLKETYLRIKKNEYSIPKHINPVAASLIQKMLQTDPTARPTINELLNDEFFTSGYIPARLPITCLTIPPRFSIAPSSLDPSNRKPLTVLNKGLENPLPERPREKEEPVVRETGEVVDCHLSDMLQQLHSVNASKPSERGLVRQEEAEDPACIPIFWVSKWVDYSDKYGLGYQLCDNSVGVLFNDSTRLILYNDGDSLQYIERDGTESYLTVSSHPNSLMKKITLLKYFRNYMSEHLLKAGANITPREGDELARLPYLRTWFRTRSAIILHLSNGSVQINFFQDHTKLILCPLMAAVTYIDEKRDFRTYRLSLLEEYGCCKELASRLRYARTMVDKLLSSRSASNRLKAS
Sequence of PI3K-beta (P42338 whole entry, species assumed): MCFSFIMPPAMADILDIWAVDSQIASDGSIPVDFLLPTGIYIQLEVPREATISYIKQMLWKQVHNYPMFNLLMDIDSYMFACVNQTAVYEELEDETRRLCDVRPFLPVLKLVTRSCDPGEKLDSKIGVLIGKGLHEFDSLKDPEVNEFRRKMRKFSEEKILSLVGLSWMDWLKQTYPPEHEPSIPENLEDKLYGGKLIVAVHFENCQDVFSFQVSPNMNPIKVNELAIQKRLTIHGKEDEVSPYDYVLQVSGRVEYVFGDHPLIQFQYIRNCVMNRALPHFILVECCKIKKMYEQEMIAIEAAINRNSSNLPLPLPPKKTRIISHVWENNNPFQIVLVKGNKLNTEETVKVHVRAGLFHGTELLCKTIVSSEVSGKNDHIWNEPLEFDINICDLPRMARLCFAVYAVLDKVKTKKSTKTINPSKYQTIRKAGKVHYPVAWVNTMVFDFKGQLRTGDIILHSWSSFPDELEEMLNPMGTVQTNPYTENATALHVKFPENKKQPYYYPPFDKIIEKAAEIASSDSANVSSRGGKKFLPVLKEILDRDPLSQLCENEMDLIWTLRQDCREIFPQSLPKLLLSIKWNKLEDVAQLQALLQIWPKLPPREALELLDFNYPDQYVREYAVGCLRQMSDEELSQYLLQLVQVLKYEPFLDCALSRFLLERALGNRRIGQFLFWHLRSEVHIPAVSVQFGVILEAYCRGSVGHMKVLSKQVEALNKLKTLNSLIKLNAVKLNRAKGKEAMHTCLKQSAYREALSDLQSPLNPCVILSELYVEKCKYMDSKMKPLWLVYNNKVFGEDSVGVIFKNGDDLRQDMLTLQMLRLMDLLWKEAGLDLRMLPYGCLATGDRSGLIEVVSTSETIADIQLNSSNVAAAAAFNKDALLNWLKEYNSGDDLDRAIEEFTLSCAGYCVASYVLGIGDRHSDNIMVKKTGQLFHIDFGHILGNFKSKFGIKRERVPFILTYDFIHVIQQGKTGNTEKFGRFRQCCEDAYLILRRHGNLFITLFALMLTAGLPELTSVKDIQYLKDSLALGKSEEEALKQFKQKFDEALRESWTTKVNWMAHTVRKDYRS
Sequence of PI3K-beta (P27986 whole entry partner, species assumed): as the sequence (P27986 whole entry partner, species assumed) above

Structure (SMILES) | IC50 ([1]; PC-3, PC3 cells, 72 hours, WST) [µM] | inhibition at 10 µM [6] [%] | inhibition at 0.3 µM [2] [%] | inhibition at 0.3 µM [3] [%] | inhibition at 0.3 µM [5] [%] | inhibition at 0.3 µM [6] [%] | also measured
O=c1nc(N2CCOCC2)[nH]c2c1cnn2C1CCCCC1 [Compound 8, 1-cyclohexyl-6-morpholino-1H-pyrazolo[3,4-d]pyrimidin-4(7H)-one] | – | 18 | 2 | – | – | – | inhibition at 10 µM [3]: 3.4%; IC50 [4]: 24 µM; inhibition at 10 µM [5]: 11%; inhibition at 10 µM [7]: 4.8%; inhibition at 10 µM [8]: 9.2%; inhibition at 10 µM [9]: 3.2%
Cc1nc2c(=O)nc(N3CCOCC3)[nH]c2n1-c1ccccc1 [Compound 11, 8-methyl-2-morpholino-9-phenyl-3H-purin-6(9H)-one] | – | – | 2.6 | 0 | 0 | 32 | inhibition at 0.3 µM [4]: 0%; inhibition at 0.3 µM [7]: 0%; inhibition at 0.3 µM [8]: 0%; inhibition at 0.3 µM [9]: 0%
COc1cccc(-c2csc3c(=O)nc(N4CCOCC4)oc23)c1 [Compound 13] | – | – | 6.8 | 0 | 0 | 0 | IC50 ([1]; PC-3, 72 h): 94 µM
O=c1nc(N2CCOCC2)[nH]c2c1cnn2-c1ccccc1 [Compound 22] | 263 | 20 | 14 | – | 42 | – | inhibition at 10 µM [7]: 8%; inhibition at 10 µM [9]: 45%
O=c1nc(N2CCOCC2)[nH]c2c1cnn2Cc1ccccc1 [Compound 23] | – | 0 | 6.6 | – | – | – | inhibition at 10 µM [3]: 4.9%; IC50 [4]: 24 µM; inhibition at 10 µM [5]: 0%; inhibition at 10 µM [7]: 15%; inhibition at 10 µM [8]: 14%; inhibition at 10 µM [9]: 2.1%
CCOC(=O)Cn1ncc2c(=O)nc(N3CCOCC3)[nH]c21 [Compound 24] | 1.4 | 7.2 | 6.6 | – | – | – | inhibition at 10 µM [3]: 7.5%; IC50 [4]: 24 µM; inhibition at 10 µM [5]: 0%; inhibition at 10 µM [7]: 14%; inhibition at 10 µM [8]: 22%; inhibition at 10 µM [9]: 0.9%
O=c1nc(N2CCOCC2)[nH]c2c1cnn2CCO [Compound 26] | – | 26 | 9 | – | – | – | inhibition at 10 µM [3]: 3.3%; IC50 [4]: 24 µM; inhibition at 10 µM [5]: 0.5%; inhibition at 10 µM [7]: 0.6%; inhibition at 10 µM [8]: 14%; inhibition at 10 µM [9]: 1.5%
O=c1nc(N2CCOCC2)[nH]c2c1cnn2-c1ccc2c(c1)OCCO2 [Compound 27] | 149 | 50 | 30 | – | – | – | IC50 [4]: 24 µM; inhibition at 10 µM [5]: 4.4%; inhibition at 10 µM [7]: 48%; inhibition at 10 µM [8]: 12%; IC50 [9]: 1 µM
O=c1nc(N2CCOCC2)[nH]c2c1cnn2-c1ccc(Cl)cc1 [Compound 28] | – | 0 | 6.9 | – | – | – | –
Cc1nc2c(=O)nc(N3CCOCC3)[nH]c2n1-c1ccc(F)cc1 [Compound 30] | – | – | 4.7 | 0 | 0 | 32 | inhibition at 0.3 µM [4]: 0%; inhibition at 0.3 µM [7]: 3%; inhibition at 0.3 µM [8]: 14%; inhibition at 0.3 µM [9]: 0%
Cc1nc2c(=O)nc(N3CCOCC3)[nH]c2n1-c1ccc2[nH]ccc2c1 [Compound 31] | – | – | 7.5 | 0 | 0 | 8.7 | inhibition at 0.3 µM [4]: 0%; inhibition at 0.3 µM [7]: 7.5%; inhibition at 0.3 µM [8]: 2.5%; inhibition at 0.3 µM [9]: 0%
Cc1ccc(-n2c(C)nc3c(=O)nc(N4CCOCC4)[nH]c32)cc1 [Compound 32] | – | – | 0 | 0 | 0 | 15 | inhibition at 0.3 µM [4]: 0%; inhibition at 0.3 µM [7]: 1%; inhibition at 0.3 µM [8]: 0%; inhibition at 0.3 µM [9]: 0%
O=c1cc(N2CCOCC2)oc2c(-c3ccccc3)cccc12 [LY294002, 2-(4-morpholinyl)-8-phenyl-4H-1-benzopyran-4-one] | – | – | – | – | – | – | IC50 ([10]; C. J. Vlahos et al. 1994): 1.4 µM
O=c1cc(N2CCNCC2)oc2c(-c3ccccc3)cccc12 [LY303511] | – | – | – | – | – | – | PI3K inhibition activity ([10]; C. Vlahos et al. 1994): lose all PI3K inhibition activity

Second part, led by results:

IC50 ([1]; PC-3, PC3 cells, 72 hours, WST) [µM] | inhibition at 10 µM [6] [%] | inhibition at 0.3 µM [2] [%] | inhibition at 0.3 µM [3] [%] | inhibition at 0.3 µM [5] [%] | inhibition at 0.3 µM [6] [%] | Structure (SMILES) | also measured
246 | – | – | – | – | – | O=c1nc(N2CCOCC2)[nH]c2c(-c3ccccc3)csc12 [Compound 5, 2-morpholino-7-phenylthieno[3,2-d]pyrimidin-4(1H)-one] | inhibition at 10 µM ([2]; read-out: PI3K-alpha(% Inh at 10 μM)): 12%
4.7 | – | 53 | 0 | 0 | 72 | O=c1nc(N2CCOCC2)oc2c(-c3ccc4c(c3)OCCO4)csc12 [Compound 12] | –
– | – | 19 | 0 | 0 | 27 | COc1ccc(-c2csc3c(=O)nc(N4CCOCC4)oc23)cc1 [Compound 14] | –
20 | – | 11 | 0 | 0 | 33 | CN(C)c1ccc(-c2csc3c(=O)nc(N4CCOCC4)oc23)cc1 [Compound 15] | –
31 | – | 16 | 0 | 0 | 17 | O=C(NCCN1CCOCC1)c1cccc(-c2csc3c(=O)nc(N4CCOCC4)oc23)c1 [Compound 16] | –
108 | – | 22 | 0 | 0 | 32 | Nc1ccc(-c2csc3c(=O)nc(N4CCOCC4)oc23)cc1 [Compound 17] | –
– | – | 0 | 0 | 0 | 0 | O=c1nc(N2CCOCC2)oc2c(-c3cccnc3)csc12 [Compound 18] | –
– | – | 15 | 0 | 3 | 0 | O=c1nc(N2CCOCC2)oc2c(-c3ccoc3)csc12 [Compound 19] | –
– | – | 0 | 0 | 0 | 0 | COc1ccc(C#Cc2csc3c(=O)nc(N4CCOCC4)oc23)cc1 [Compound 20] | –
– | 10 | 6.6 | – | – | – | O=c1nc(N2CCOCC2)[nH]c2c1cnn2-c1ccccn1 [Compound 25] | inhibition at 10 µM [3]: 2.6%; IC50 [4]: 24 µM; inhibition at 10 µM [5]: 0%; inhibition at 10 µM [7]: 35%; inhibition at 10 µM [8]: 4.7%; inhibition at 10 µM [9]: 9.4%
– | – | 7 | 0 | 0 | 0 | Cc1nc2c(=O)nc(N3CCOCC3)[nH]c2n1Cc1ccccc1 [Compound 29] | inhibition at 0.3 µM [4]: 0%; inhibition at 0.3 µM [7]: 0%; inhibition at 0.3 µM [8]: 0%; inhibition at 0.3 µM [9]: 0%
